Test results taken from US11077090B2, “Compounds and compositions and uses thereof” (Sunovion Pharmaceuticals Inc., priority 2016, dated 2021).

Legend:
Type in all cases: in vivo
Male C57Bl/6J mice [1] = experiment: Prepulse inhibition of startle (PPI); set-up: key: −: No change in PPI; +: Significant increase in PPI at one pre-pulse intensity (P < 0.05 vs vehicle); ++: Significant increase in PPI at two pre-pulse intensities (P < 0.05 vs vehicle); +++: Significant increase in PPI at three pre-pulse intensities (P < 0.05 vs vehicle); conditions: 3 mg/kg PO
Text: The acoustic startle is an unconditioned reflex response to an external auditory stimulus. Prepulse inhibition of startle (PPI) refers to the reduction in the startle response caused by the presentation of a low-intensity auditory stimulus prior to the startle stimulus. The PPI paradigm is used for the study of schizophrenia and antipsychotic action due to the similarities between the results from human and rodent studies. PPI has been used as a tool for the assessment of deficiencies in sensory-motor gating observed in schizophrenia and to screen for potential antipsychotic drugs. Various psychotomimetic drugs, such as phencyclidine (PCP), can disrupt PPI. In mice, antipsychotic drugs such as haloperidol can increase PPI and clozapine can reverse the disruption of PPI induced by PCP.
Male C57Bl/6J mice from Jackson Laboratories were placed in the PPI chambers (Med Associates) for a 5 min session of white noise (70 dB) habituation. After the habituation period, the test session was initiated. The session started with a habituation block of 6 presentations of the startle stimulus alone, followed by 10 PPI blocks, each of which consisted of 6 different types of trials. Trial types were: ‘null’ (no stimuli), ‘startle’ (120 dB), ‘startle plus prepulse’ (4, 8, and 12 dB over background noise, i.e., 74, 78, or 82 dB) and ‘prepulse’ (82 dB). Trial types were presented in a random order within each block. Each trial started with a 50 ms stimulus-free period during which baseline movements were recorded. This was followed by a subsequent 20 ms period during which the prepulse stimulus was presented and responses to the prepulse measured. After a further 100 ms period, the startle stimulus was presented for 40 ms and responses recorded for 100 ms from startle onset. Responses were sampled every ms. The inter-trial interval was variable with an average of 15 s (range from 10 to 20 s). In ‘startle’ trials, the basic auditory startle response was measured. The basic startle response was calculated as the mean startle response of all ‘startle’ trials (i.e., excluding the first habituation block). In ‘startle plus prepulse’ trials, the degree of inhibition of the normal startle was calculated and expressed as a percentage of the basic startle response.
Mice were treated with vehicle or test compound orally by gavage, or haloperidol (1 mg/kg, i.p.), in 10 mL/kg injection volumes, 30 min prior to PPI test. The PPI enclosures were cleaned following each test. An increase in the percent PPI relative to the vehicle condition indicates an antipsychotic drug-like response.

Adult male AJ mice = experiment: Tail suspension test (TST); set-up: key: −: No decrease in Mean Total Time Immobile; +: Significant decrease in Mean Total Time Immobile (P < 0.05 vs vehicle); conditions: 3 mg/kg PO
Text: The tail suspension test (TST) is a rodent screening test for potential (human) antidepressant drugs. It is based on the assumption that an animal will actively try to escape an aversive (stressful) stimulus. If escape is impossible, the animal will eventually stop trying (“give up”). In the TST, a mouse is suspended by the tail so that its body dangles in the air, head downward. Mice initially struggle to face upward and climb to a solid surface. When the animal stops struggling and hangs immobile it is considered to have “given up”. Shorter periods of immobility are characteristic of antidepressant-like activity. Accordingly, longer periods of immobility are considered indicative of a depressive-like state. It has been shown that treatment with an antidepressant drug will decrease the time the animal spends immobile. See generally L. Steru et al., Psychopharmacology (Berl). 1985; 85(3):367-70; B. Thierry et al., Psychopharmacology 1986; 90:284-85.
Adult male AJ mice from Jackson Laboratories received vehicle (sterile water) or test compound orally by gavage, or the positive control desipramine (20 mg/kg, i.p.), in 10 mL/kg injection volumes, 30 min before being subjected to the Tail Suspension Test. In this test, mice are placed in the Tail Suspension chambers (white polyvinylchloride cubicles measuring 33×33×31.75 cm Med Associates, Inc. St. Albans, Vt.) by a piece of transparent (Scotch®) tape attached to the tail, from about the mid-tail, with approximately 2 cm of tape past the end of the tail for 10 min during which the time spent immobile is measured. A reduction in total time immobile relative to the vehicle condition indicates an antidepressant drug-like response.

Male C57Bl/6J mice [2] = experiment: Amphetamine induced hyperlocomotion assay; set-up: key: #: Significant increase in total distance traveled (P < 0.05 vs vehicle + AMPH group); −: No change in total distance traveled; Significant decrease in total distance traveled (P < 0.05 vs vehicle + AMPH group); conditions: 3 mg/kg PO Compound + AMPH
Description: Psychostimulants such as amphetamine (AMPH) are frequently used to induce or mimic a manic-like or psychotic-like state. AMPH administration to rodents increases horizontal locomotion, vertical rearing and repetitive stereotyped behaviors, and typical antipsychotic drugs, such as haloperidol, can reduce these behaviors. The antimanic/antipsychotic-like effects of test compounds were evaluated in male C57Bl/6J mice from Jackson Laboratories Mice were acclimatized to the experimental room for at least 1 hour prior to testing. The mice (n=10 per group) were administered vehicle or test compound orally by gavage (10 mL/kg injection volume) and placed individually in the novel open field (OF) chambers (Med Associates) for 30 minutes of baseline activity measurement. Mice were then injected with either water or AMPH (4 mg/kg, i.p., 10 mL/kg) and placed back in the same individual OF chambers for a 60-minute testing session during which the effects of test compounds on stimulant-induced behaviors (total distance traveled, rearing and stereotypy) were measured. A reduction in total distance traveled relative to the vehicle+AMPH condition indicates an antimanic/antipsychotic drug-like response.

Male C57Bl/6J mice [3] = experiment: Marble burying test; set-up: key: −: No reduction in number of marbles buried; +: Significant reduction in number of marbles buried (P < 0.05 vs vehicle)
Description: The marble burying assay is used to evaluate the anxiolytic activity of a test compound. After placement in a novel cage containing glass marbles, mice will bury the marbles. Acute administration of anxiolytic agents, as well as antidepressants, decrease this activity at non-sedating doses. Male C57Bl/6J mice from Jackson Laboratories were used in this study and were acclimatized to the experimental room for at least 1 hour prior to testing. Mice (n=10 per group) were administered sterile water or test compound intraperitoneally (i.p.) or orally by gavage (p.o.), or the positive control chlordiazepoxide (15 mg/kg, i.p.), in 10 mL/kg injection volumes, and returned to their home cages for a 30-minute pretreatment period. The mice were then placed individually in clean cages, containing hard wood bedding and twenty black marbles placed in spaced rows of 4×5. After a 30-minute test session, the number of buried marbles was counted. A marble was considered buried if it was pushed at least two thirds into the bedding. Locomotor activity was monitored by measuring the distance traveled using an overhead camera and Video Tracker Software (ViewPoint Life Sciences Software, France). A reduction in the number of marbles buried relative to the vehicle condition indicates an anxiolytic drug-like effect.

compound-treated mice = experiment: Neuropharmacological assay (SmartCube): behavioral activity signature and minimal effective dose; conditions: for AD: ADHD (probability of activity signature) / AG: analgesic (probability of activity signature) / AX: anxiolytic (probability of activity signature) / CE: cognitive enhancer (probability of activity signature) / DP: anti-depressant (probability of activity signature) / MS: mood stabilizer (probability of activity signature) / PS: anti-psychotic (probability of activity signature) / SD: sedative hypnotic (probability of activity signature) / UN: uncharacterized CNS activity (probability of activity signature): i.p. 15 min before test, most efficacious dose(s)
Summary of the method: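 Video-recorded behavior is compared algorithmically against a reference-compound database, yielding class probabilities (best dose reported). Compounds given i.p. in NMP/PEG/propylene glycol 15 min pre-test at 3 doses; potency as MED, the dose (mpk, range usually 0.3–30) reaching ≥50% total activity.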

male Sprague-Dawley rats = experiment: Stress induced hyperthermia (SIH) assay; set-up: key: −: No change in Delta T ([…]T); +: Significant decrease in Delta T ([…]T) (P < 0.05 vs vehicle)
Text: Stress-induced hyperthermia (SIH), mediated by the autonomic nervous system, is well known to occur prior to and during exposure to stress and/or anxiety-inducing situations. In many human anxiety disorders, it occurs as an integral part of the pathology and is often considered a representative symptom of the disease, e.g. in generalized anxiety disorder as defined in DSM-IV. In rodents, acute administration of anxiolytic drugs, such as buspirone or chlordiazepoxide (CDP), are known to reduce the SIH response to stressors such as handling, noise, heat, novelty, or pain. The test involves two measures of rectal temperature repeated in the same animal with a 10-minute interval. On the day prior to testing, male Sprague-Dawley rats from Envigo (n=10 per group) were brought to the experimental room approximately one hour before scheduled lights out and singly housed overnight with food and water ad libitum. On the morning of the experiment, animals were first injected with either vehicle or test compound orally by gavage, or CDP (10 mg/kg, i.p.). One hour following injection, each animal was removed from the holding cage and held in a supine position while the rectal temperature was measured by slowly inserting a rectal probe into the animal's rectum at a length of approximately 0.5 cm. The rectal probe was attached to a PhysiTemp digital thermometer (Fisher Scientific) which provides temperature readings at 0.1° C. accuracy. The probe remained inside the animal for approximately 5 seconds or until body temperature reaches stability. This temperature was recorded as the baseline rectal temperature (T1). The animal was immediately placed back to the holding cage and after a 10-min interval the second rectal temperature (T2) was taken using the same procedure as in measuring T1. Before each insertion, the rectal probe was cleaned with an alcohol pad and lubricated with sterile K-Y jelly. All SIH studies were conducted between 8:00-11:00 a.m. The SIH response was calculated as the difference in temperature between the second and first temperature reading (Delta T, […]T). A reduction in […]T relative to the vehicle condition indicates an anxiolytic drug-like response.

[4] = MED = dose having 50% or more total activity

Structure (SMILES): N[C@H]1COCc2ccc(F)cc21 (single isomer, unassigned) [Compound 114]
- Effect on Pre-Pulse Inhibition (PPI) (Male C57Bl/6J mice [1]): −
- Mean Total Time Immobile (Adult male AJ mice): −
- Total Distance Traveled (Male C57Bl/6J mice [2]): −
- Marbles Buried (Male C57Bl/6J mice [3]; 1 mg/kg (p.o.)): −

Structure (SMILES): N[C@@H]1COCc2ccc3ccccc3c21 (single isomer, unassigned) [Compound 117]
- Effect on Pre-Pulse Inhibition (PPI) (Male C57Bl/6J mice [1]): −
- Mean Total Time Immobile (Adult male AJ mice): −
- Total Distance Traveled (Male C57Bl/6J mice [2]): −
- Marbles Buried (Male C57Bl/6J mice [3]; 1 mg/kg (p.o.)): −

Structure (SMILES): N[C@H]1COCc2ccc3ccccc3c21 (single isomer, unassigned) [Compound 118]
- Effect on Pre-Pulse Inhibition (PPI) (Male C57Bl/6J mice [1]): −
- Mean Total Time Immobile (Adult male AJ mice): −
- Total Distance Traveled (Male C57Bl/6J mice [2]): −
- Marbles Buried (Male C57Bl/6J mice [3]; 3 mg/kg (p.o.)): −

Structure (SMILES): C[C@@H]1OCc2ccccc2[C@H]1N (single isomer, unassigned) [Example 152]
- Potency: minimal effective dose (MED) (compound-treated mice; [4]): A (≤3 mpk)
- AD: ADHD (probability of activity signature) (compound-treated mice): + (LOQ ≤ + <5%)
- AG: analgesic (probability of activity signature) (compound-treated mice): ++ (5% ≤ ++ <25%)
- AX: anxiolytic (probability of activity signature) (compound-treated mice): +++ (25% ≤ +++ <50%)
- CE: cognitive enhancer (probability of activity signature) (compound-treated mice): ++ (5% ≤ ++ <25%)
- DP: anti-depressant (probability of activity signature) (compound-treated mice): ++ (5% ≤ ++ <25%)
- MS: mood stabilizer (probability of activity signature) (compound-treated mice): + (LOQ ≤ + <5%)
- PS: anti-psychotic (probability of activity signature) (compound-treated mice): ++ (5% ≤ ++ <25%)
- SD: sedative hypnotic (probability of activity signature) (compound-treated mice): + (LOQ ≤ + <5%)
- UN: uncharacterized CNS activity (probability of activity signature) (compound-treated mice): +++ (25% ≤ +++ <50%)
- Delta T ([…]T) (male Sprague-Dawley rats; 1 mg/kg PO): +
- Delta T ([…]T) (male Sprague-Dawley rats; 3 mg/kg PO): +
- Delta T ([…]T) (male Sprague-Dawley rats; 10 mg/kg PO): +
- Delta T ([…]T) (male Sprague-Dawley rats; 30 mg/kg PO): +
- Marbles Buried (Male C57Bl/6J mice [3]; 3 mg/kg (i.p.)): −
- Marbles Buried (Male C57Bl/6J mice [3]; 10 mg/kg (i.p.)): +

Structure (SMILES): Cc1cccc2c1[C@@H](N)[C@@H](C)OC2 (single isomer, unassigned) [Example 170]
- Potency: minimal effective dose (MED), binned (compound-treated mice; [4]): A (≤3 mpk)
- AD: ADHD (probability of activity signature) (compound-treated mice): + (LOQ ≤ + <5%)
- AG: analgesic (probability of activity signature) (compound-treated mice): ++ (5% ≤ ++ <25%)
- AX: anxiolytic (probability of activity signature) (compound-treated mice): ++ (5% ≤ ++ <25%)
- CE: cognitive enhancer (probability of activity signature) (compound-treated mice): ++ (5% ≤ ++ <25%)
- DP: anti-depressant (probability of activity signature) (compound-treated mice): ++ (5% ≤ ++ <25%)
- MS: mood stabilizer (probability of activity signature) (compound-treated mice): + (LOQ ≤ + <5%)
- PS: anti-psychotic (probability of activity signature) (compound-treated mice): ++ (5% ≤ ++ <25%)
- SD: sedative hypnotic (probability of activity signature) (compound-treated mice): + (LOQ ≤ + <5%)
- UN: uncharacterized CNS activity (probability of activity signature) (compound-treated mice): ++++ (50% ≤ ++++)
- Delta T ([…]T) (male Sprague-Dawley rats; 10 mg/kg PO): +
- Delta T ([…]T) (male Sprague-Dawley rats; 30 mg/kg PO): +
- Marbles Buried (Male C57Bl/6J mice [3]; 3 mg/kg (i.p.)): −
- Marbles Buried (Male C57Bl/6J mice [3]; 10 mg/kg (i.p.)): +

Structure (SMILES): Cc1ccc2c(c1)[C@H](N)COC2 [Compound 123]
- Effect on Pre-Pulse Inhibition (PPI) (Male C57Bl/6J mice [1]): −
- Mean Total Time Immobile (Adult male AJ mice): −
- Total Distance Traveled (Male C57Bl/6J mice [2]): #
- Marbles Buried (Male C57Bl/6J mice [3]; 3 mg/kg (p.o.)): −

Structure (SMILES): Cc1ccc2c(c1)[C@@H](N)COC2 [Compound 124]
- Effect on Pre-Pulse Inhibition (PPI) (Male C57Bl/6J mice [1]): −
- Mean Total Time Immobile (Adult male AJ mice): −
- Total Distance Traveled (Male C57Bl/6J mice [2]): −
- Marbles Buried (Male C57Bl/6J mice [3]; 3 mg/kg (p.o.)): −
